Numbered stars: 1 amine (or outer) side, 2 acyl side, 3 side chain; on linkers, the order of the positions; unused ones are H or OH. Square brackets hold non-standard residues; d marks the D form. Side chains are listed from the residue outwards. Peptide text beside a SMILES is read from it. * marks the point of attachment. γGlu = O=C(O)[C@H](CCC(=O)[*:2])N[*:1]; Palmitoyl = CCCCCCCCCCCCCCCC(=O)*; Orn = NCCC[C@H](N)C(=O)O; Aib = CC(C)(N)C(=O)O
Assays:
Type in all cases: cell-based
glucagon receptor = biological target: T1, glucagon receptor (Homo sapiens, UniProt P47871); test: cAMP induction, firefly luciferase reporter assay in HEK293 cells co-transfected with the glucagon receptor; conditions: HEK293 cells, cAMP-responsive luciferase reporter, 5 hours incubation
T1 construct: expressed in transfected cells; host or cells: HEK293
Description: (§1) The ability of each peptide to induce cAMP was measured in a firefly luciferase-based reporter assay. […] At the end of the incubation, 100 μL of LucLite luminescence substrate reagent (Perkin Elmer, Wellesley, Mass.) were added to each well. […] In some instances, the in vitro agonist activity at the GIP receptor was also tested.

GIP receptor = biological target: T2, GIP receptor (Homo sapiens, UniProt P48546); test: in vitro agonist activity at the GIP receptor (cAMP luciferase reporter, HEK293 cells); conditions: in vitro agonist activity; read-out: EC50 (nM) at GIP receptor
T2 construct: expressed in transfected cells; host or cells: HEK293
T2 sequence (P48546 22-466): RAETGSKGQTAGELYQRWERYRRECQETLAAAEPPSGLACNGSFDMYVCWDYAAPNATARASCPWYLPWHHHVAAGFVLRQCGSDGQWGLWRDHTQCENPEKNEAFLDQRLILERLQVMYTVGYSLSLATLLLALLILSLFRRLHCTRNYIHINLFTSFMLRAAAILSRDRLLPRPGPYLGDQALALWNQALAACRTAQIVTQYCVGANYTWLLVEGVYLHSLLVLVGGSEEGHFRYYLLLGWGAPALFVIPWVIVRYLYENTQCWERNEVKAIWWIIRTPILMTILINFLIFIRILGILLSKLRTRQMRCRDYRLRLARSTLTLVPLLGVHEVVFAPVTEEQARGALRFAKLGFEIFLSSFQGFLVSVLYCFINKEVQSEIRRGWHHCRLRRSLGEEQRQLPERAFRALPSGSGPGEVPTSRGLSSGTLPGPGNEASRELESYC
Description: as §1, with “It is understood that a lower EC50 indicates higher activity or potency at the receptor. […] The” for “The”

GLP-1 receptor = biological target: T3, GLP-1 receptor (Homo sapiens, UniProt P43220); test: cAMP induction, firefly luciferase reporter assay in HEK293 cells co-transfected with the GLP-1 receptor; conditions: HEK293 cells, cAMP-responsive luciferase reporter, 5 hours incubation
T3 construct: expressed in transfected cells; host or cells: HEK293
Description: as §1

T1 sequence (P47871 26-477, species assumed): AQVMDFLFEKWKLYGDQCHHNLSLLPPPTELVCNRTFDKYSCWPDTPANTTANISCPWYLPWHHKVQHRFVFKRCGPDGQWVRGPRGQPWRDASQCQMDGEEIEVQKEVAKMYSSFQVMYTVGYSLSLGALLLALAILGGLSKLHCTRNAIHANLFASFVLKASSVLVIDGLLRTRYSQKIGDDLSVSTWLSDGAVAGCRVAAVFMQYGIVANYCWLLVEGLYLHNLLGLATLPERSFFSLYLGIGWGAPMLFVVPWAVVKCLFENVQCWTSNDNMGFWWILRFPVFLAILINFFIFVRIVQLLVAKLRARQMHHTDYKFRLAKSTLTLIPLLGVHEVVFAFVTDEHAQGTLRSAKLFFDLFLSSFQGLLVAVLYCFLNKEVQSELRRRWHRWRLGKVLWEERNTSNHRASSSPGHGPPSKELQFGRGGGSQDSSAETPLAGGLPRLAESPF
T3 sequence (P43220 24-463): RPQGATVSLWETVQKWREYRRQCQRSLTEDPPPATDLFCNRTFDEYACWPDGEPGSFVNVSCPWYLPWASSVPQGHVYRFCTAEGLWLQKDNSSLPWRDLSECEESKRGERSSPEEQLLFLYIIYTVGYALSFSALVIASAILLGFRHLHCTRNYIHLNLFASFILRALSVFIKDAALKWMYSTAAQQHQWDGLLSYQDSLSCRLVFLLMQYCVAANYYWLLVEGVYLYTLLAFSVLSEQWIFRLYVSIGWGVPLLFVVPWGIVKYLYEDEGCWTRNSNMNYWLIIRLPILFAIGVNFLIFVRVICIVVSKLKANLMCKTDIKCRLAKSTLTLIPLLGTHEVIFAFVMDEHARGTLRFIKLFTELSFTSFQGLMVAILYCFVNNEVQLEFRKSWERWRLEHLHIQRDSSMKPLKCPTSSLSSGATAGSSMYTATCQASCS

Compound	EC50 (glucagon receptor)	EC50 (GIP receptor)	EC50 (GLP-1 receptor)
CCCCCCCCCCCCCCCC(=O)N[C@@H](CCC(=O)N[C@@H](CCC(=O)NCCCC[C@H](NC(=O)[C@H](CC(=O)O)NC(=O)[C@H](CO)NC(=O)[C@@H](NC(=O)[C@H](Cc1ccccc1)NC(=O)[C@@H](NC(=O)CNC(=O)[C@H](CCC(N)=O)NC(=O)C(C)(C)NC(=O)[C@@H](N)Cc1c[nH]cn1)[C@@H](C)O)[C@@H](C)O)C(=O)N[C@@H](CO)C(=O)N[C@@H](CCCCN)C(=O)N[C@@H](Cc1ccc(O)cc1)C(=O)N[C@@H](CC(C)C)C(=O)N[C@@H](CC(=O)O)C(=O)NC(C)(C)C(=O)N[C@@H](CCCNC(=N)N)C(=O)N[C@@H](C)C(=O)N[C@@H](C)C(=O)N[C@@H](CCC(N)=O)C(=O)N[C@@H](CC(=O)O)C(=O)N[C@@H](Cc1ccccc1)C(=O)N[C@H](C(=O)N[C@@H](CCC(N)=O)C(=O)N[C@@H](Cc1c[nH]c2ccccc12)C(=O)N[C@@H](CC(C)C)C(=O)N[C@@H](CCCCN)C(=O)N[C@@H](CC(=O)O)C(=O)NCC(=O)N[C@@H](CCCNC(=N)N)C(=O)N1CCC[C@H]1C(N)=O)C(C)C)C(=O)O)C(=O)O [compound 25] (H-H[Aib]QGTFTSDK([γGlu-γGlu-Palmitoyl])SKYLD[Aib]RAAQDFVQWLKDGRP-NH2)	0.035 nM	2.36 nM	0.003 nM
CCCCCCCCCCCCCCCC(=O)N[C@@H](CCC(=O)NCCCC[C@H](NC(=O)[C@H](CC(=O)O)NC(=O)[C@H](CO)NC(=O)[C@@H](NC(=O)[C@H](Cc1ccccc1)NC(=O)[C@@H](NC(=O)CNC(=O)[C@H](CCC(N)=O)NC(=O)[C@@H](CO)NC(=O)[C@@H](N)Cc1c[nH]cn1)[C@@H](C)O)[C@@H](C)O)C(=O)N[C@@H](CO)C(=O)N[C@@H](CCCCN)C(=O)N[C@@H](Cc1ccc(O)cc1)C(=O)N[C@@H](CC(C)C)C(=O)N[C@@H](CC(=O)O)C(=O)N[C@@H](CCC(=O)O)C(=O)N[C@@H](CCCNC(=N)N)C(=O)N[C@@H](C)C(=O)N[C@@H](C)C(=O)N[C@@H](CCC(N)=O)C(=O)N[C@@H](CC(=O)O)C(=O)N[C@@H](Cc1ccccc1)C(=O)N[C@H](C(=O)N[C@@H](CCC(N)=O)C(=O)N[C@@H](Cc1c[nH]c2ccccc12)C(=O)N[C@@H](CC(C)C)C(=O)N[C@@H](CC(C)C)C(=O)N[C@@H](CCCCN)C(=O)NCC(=O)N[C@@H](CCCNC(=N)N)C(=O)NCC(N)=O)C(C)C)C(=O)O [compound 27]	0.022 nM	2.12 nM	0.005 nM
CCCCCCCCCCCCCCCC(=O)N[C@@H](CCC(=O)NCCCC[C@H](NC(=O)[C@H](CC(=O)O)NC(=O)[C@H](CO)NC(=O)[C@@H](NC(=O)[C@H](Cc1ccccc1)NC(=O)[C@@H](NC(=O)CNC(=O)[C@H](CCC(N)=O)NC(=O)C(C)(C)NC(=O)[C@@H](N)Cc1c[nH]cn1)[C@@H](C)O)[C@@H](C)O)C(=O)N[C@@H](CO)C(=O)N[C@@H](CCCCN)C(=O)N[C@@H](Cc1ccc(O)cc1)C(=O)N[C@@H](CC(C)C)C(=O)N[C@@H](CC(=O)O)C(=O)NC(C)(C)C(=O)N[C@@H](CCCNC(=N)N)C(=O)N[C@@H](C)C(=O)N[C@@H](C)C(=O)N[C@@H](CCC(N)=O)C(=O)N[C@@H](CC(=O)O)C(=O)N[C@@H](Cc1ccccc1)C(=O)N[C@H](C(=O)N[C@@H](CCC(N)=O)C(=O)N[C@@H](Cc1c[nH]c2ccccc12)C(=O)N[C@@H](CC(C)C)C(=O)N[C@@H](CCSC)C(=O)N[C@@H](CCCCN)C(=O)N[C@H](C(=O)N[C@@H](CCCCN)C(=O)N[C@H](CCC(=O)O)C(=O)O)[C@@H](C)O)C(C)C)C(=O)O [compound 60] (H-H[Aib]QGTFTSDK([γGlu-Palmitoyl])SKYLD[Aib]RAAQDFVQWLMKTK[dE]-OH; N-terminus assumed)	4.6 nM	147 nM	0.033 nM
CCCCCCCCCCCCCCCC(=O)N[C@@H](CCC(=O)N[C@@H](CCC(=O)NCCCC[C@H](NC(=O)[C@H](CC(=O)O)NC(=O)[C@H](CO)NC(=O)[C@@H](NC(=O)[C@H](Cc1ccccc1)NC(=O)[C@@H](NC(=O)CNC(=O)[C@H](CCC(N)=O)NC(=O)C(C)(C)NC(=O)[C@@H](N)Cc1c[nH]cn1)[C@@H](C)O)[C@@H](C)O)C(=O)N[C@@H](CO)C(=O)N[C@@H](CCCCN)C(=O)N[C@@H](Cc1ccc(O)cc1)C(=O)N[C@@H](CC(C)C)C(=O)N[C@@H](CC(=O)O)C(=O)NC(C)(C)C(=O)N[C@@H](CCCNC(=N)N)C(=O)N[C@@H](C)C(=O)N[C@@H](C)C(=O)N[C@@H](CCC(N)=O)C(=O)N[C@@H](CC(=O)O)C(=O)N[C@@H](Cc1ccccc1)C(=O)N[C@H](C(=O)N[C@@H](CCC(N)=O)C(=O)N[C@@H](Cc1c[nH]c2ccccc12)C(=O)N[C@@H](CC(C)C)C(=O)N[C@@H](CCSC)C(=O)N[C@@H](CCCN)C(=O)N[C@H](C(=O)N[C@@H](CCCN)C(=O)N[C@@H](CCC(=O)O)C(=O)O)[C@@H](C)O)C(C)C)C(=O)O)C(=O)O [compound 33] (H-H[Aib]QGTFTSDK([γGlu-γGlu-Palmitoyl])SKYLD[Aib]RAAQDFVQWLM[Orn]T[Orn]E-OH; N-terminus assumed)	0.023 nM	3.96 nM	0.019 nM
CCCCCCCCCCCCCCCC(=O)N[C@@H](CCC(=O)NCCCC[C@H](NC(=O)[C@H](CC(=O)O)NC(=O)[C@H](CO)NC(=O)[C@@H](NC(=O)[C@H](Cc1ccccc1)NC(=O)[C@@H](NC(=O)CNC(=O)[C@H](CCC(N)=O)NC(=O)[C@@H](CO)NC(=O)[C@@H](N)Cc1c[nH]cn1)[C@@H](C)O)[C@@H](C)O)C(=O)N[C@@H](CO)C(=O)N[C@@H](CCCCN)C(=O)N[C@@H](Cc1ccc(O)cc1)C(=O)N[C@@H](CC(C)C)C(=O)N[C@@H](CC(=O)O)C(=O)N[C@@H](CCC(=O)O)C(=O)N[C@@H](CCCNC(=N)N)C(=O)N[C@@H](C)C(=O)N[C@@H](C)C(=O)N[C@@H](CCC(N)=O)C(=O)N[C@@H](CC(=O)O)C(=O)N[C@@H](Cc1ccccc1)C(=O)N[C@H](C(=O)N[C@@H](CCC(N)=O)C(=O)N[C@@H](Cc1c[nH]c2ccccc12)C(=O)N[C@@H](CC(C)C)C(=O)N[C@@H](CC(C)C)C(=O)N[C@@H](CC(=O)O)C(=O)NCC(=O)N[C@@H](CCCNC(=N)N)C(=O)N[C@@H](CCCCN)C(N)=O)C(C)C)C(=O)O [compound 28]	0.015 nM	2.84 nM	0.003 nM

Reference: patent US8729017B2 (priority 2011, dated 2014)
